Consider 13 compounds from patent US20160102073A1, “2-HYDROXYMETHYL-SUBSTITUTED OREXIN RECEPTOR ANTAGONISTS” (MERCK SHARP & DOHME CORP., priority 2013, published 2016).

Broadly, the IC50 is the concentration that gives 50% inhibition. Read a high IC50 as weaker potency in that assay.

In assay [1] the target is T1, human orexin-1 receptor (hOX1R) (Homo sapiens, UniProt O43613).
T1 construct: expressed in transfected cells; host or cells: Chinese hamster ovary (CHO) cells, grown under G418 selection
T1 sequence (O43613 1-425): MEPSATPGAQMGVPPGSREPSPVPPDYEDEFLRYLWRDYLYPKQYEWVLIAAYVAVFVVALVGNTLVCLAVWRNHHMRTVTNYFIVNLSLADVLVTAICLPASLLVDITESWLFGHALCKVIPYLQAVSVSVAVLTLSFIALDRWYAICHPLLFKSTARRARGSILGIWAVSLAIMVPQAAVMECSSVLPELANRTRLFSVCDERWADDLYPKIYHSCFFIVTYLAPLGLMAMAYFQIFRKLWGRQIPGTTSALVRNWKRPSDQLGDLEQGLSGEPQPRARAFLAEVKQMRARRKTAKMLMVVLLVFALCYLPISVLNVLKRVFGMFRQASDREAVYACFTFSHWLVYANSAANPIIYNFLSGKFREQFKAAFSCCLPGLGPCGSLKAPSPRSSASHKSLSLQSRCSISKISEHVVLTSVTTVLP
In words: FLIPR Ca2+ Flux Assay, CHO cells expressing hOX1R. Format: cell-based. The note with it: agonist 70 pM Ala-6,12 orexin-A. The protocol:
(§1) Chinese hamster ovary (CHO) cells expressing the human orexin-1 receptor (hOX1R) or the human orexin-2 receptor (hOX2R) were grown in Iscove's modified DMEM containing 2 mM L-glutamine, […], 1% hypoxanthine-thymidine supplement, 100 U/ml penicillin, 100 μg/ml streptomycin and 10% heat-inactivated fetal calf serum (FCS). The cells were seeded at 20,000 cells/well into Becton-Dickinson black 384-well clear bottom sterile plates coated with poly-D-lysine. All reagents were from GIBCO-Invitrogen Corp. The seeded plates were incubated overnight at 37° C. and 5% CO2. Ala-6,12 human orexin-A, used as the agonist, was prepared as a 1 mM stock solution in 1% bovine serum albumin (BSA) and diluted in assay buffer (HBSS containing 20 mM HEPES, 0.1% BSA and 2.5 mM probenecid, pH7.4) for use in the assay at a final concentration of 70 pM. Test compounds were prepared as 10 mM stock solution in DMSO, then diluted in 384-well plates, first in DMSO, then assay buffer.
On the day of the assay, cells were washed 3× with 100 μl assay buffer and then incubated for 60 minutes (37° C., 5% CO2) in 60 μl assay buffer containing 1 μM Fluo-4AM ester, 0.02% pluronic acid, and 1% BSA. The dye loading solution was then aspirated and cells were washed 3× with 100 μl assay buffer. 30 μl of that same buffer was left in each well. Within the Fluorescent Imaging Plate Reader (FLIPR, Molecular Devices), test compounds were added to the plate in a volume of 25 μl, incubated for 5 minutes, and then 25 μl of agonist was added. Fluorescence was measured for each well at 1 second intervals for 5 minutes, and the height of each fluorescence peak was compared to the height of the fluorescence peak induced by 70 pM of Ala-6,12 orexin-A with buffer in place of test compound.
(Calcium flux is commonly read through the fluorescence of an indicator in the cells.)

For assay [2], the target named is T2, human orexin-2 receptor (hOX2R) (Homo sapiens, UniProt O43614).
T2 construct: expressed in transfected cells; host or cells: Chinese hamster ovary (CHO) cells, grown under G418 selection
T2 sequence (O43614 1-444): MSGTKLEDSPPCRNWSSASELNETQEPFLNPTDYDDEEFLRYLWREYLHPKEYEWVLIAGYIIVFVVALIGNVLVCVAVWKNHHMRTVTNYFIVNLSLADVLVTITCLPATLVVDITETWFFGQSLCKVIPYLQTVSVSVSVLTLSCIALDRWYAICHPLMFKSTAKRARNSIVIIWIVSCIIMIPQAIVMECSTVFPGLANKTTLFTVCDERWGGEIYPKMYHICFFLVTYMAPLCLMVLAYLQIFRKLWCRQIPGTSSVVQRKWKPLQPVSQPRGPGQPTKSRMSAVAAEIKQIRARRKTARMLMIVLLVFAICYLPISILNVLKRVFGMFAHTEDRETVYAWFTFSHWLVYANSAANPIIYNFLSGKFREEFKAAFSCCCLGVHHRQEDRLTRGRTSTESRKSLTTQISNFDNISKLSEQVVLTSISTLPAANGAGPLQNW
In words: FLIPR Ca2+ Flux Assay, CHO cells expressing hOX2R. The class given is cell-based. Conditions: agonist 70 pM Ala-6,12 orexin-A. The protocol:
The utility of the compounds in accordance with the present invention as orexin receptor OX1R and/or OX2R antagonists may be readily determined without undue experimentation by methodology well known in the art, including the “FLIPR Ca^2+ Flux Assay” (Okumura et al., Biochem. Biophys. Res. Comm. 280:976-981, 2001). In a typical experiment the OX1 and OX2 receptor antagonistic activity of the compounds of the present invention was determined in accordance with the following experimental method. For intracellular calcium measurements, Chinese hamster ovary (CHO) cells expressing the rat orexin-1 receptor or the human orexin-2 receptor, are grown in Iscove's modified DMEM containing 2 mM L-glutamine, […], 1% hypoxanthine-thymidine supplement, 100 U/ml penicillin, 100 μg/ml streptomycin and 10% heat-inactivated fetal calf serum (FCS). The cells are seeded at 20,000 cells/well into Becton-Dickinson black 384-well clear bottom sterile plates coated with poly-D-lysine. All reagents were from GIBCO-Invitrogen Corp. The seeded plates are incubated overnight at 37° C. and 5% CO2. Ala-6,12 human orexin-A as the agonist is prepared as a 1 mM stock solution in 1% bovine serum albumin (BSA) and diluted in assay buffer (HBSS containing 20 mM HEPES, 0.1% BSA and 2.5 mM probenecid, pH7.4) for use in the assay at a final concentration of 70 pM. Test compounds are prepared as 10 mM stock solution in DMSO, then diluted in 384-well plates, first in DMSO, then assay buffer. On the day of the assay, cells are washed 3 times with 100 μl assay buffer and then incubated for 60 min (37° C., 5% CO2) in 60 μl assay buffer containing 1 μM Fluo-4AM ester, 0.02% pluronic acid, and 1% BSA. The dye loading solution is then aspirated and cells are washed 3 times with 100 μl assay buffer. 30 μl of that same buffer is left in each well. Within the Fluorescent Imaging Plate Reader (FLIPR, Molecular Devices), test compounds are added to the plate in a volume of 25 μl, incubated for 5 min and finally 25 μl of agonist is added. Fluorescence is measured for each well at 1 second intervals for 5 minutes and the height of each fluorescence peak is compared to the height of the fluorescence peak induced by 70 pM Ala-6,12 orexin-A with buffer in place of antagonist. For each antagonist, IC50 value (the concentration of compound needed to inhibit 50% of the agonist response) is determined. Alternatively, compound potency can be assessed by a radioligand binding assay (described in Bergman et. al. Bioorg. Med. Chem. Lett. 2008, 18, 1425-1430) in which the inhibition constant (Ki) is determined in membranes prepared from CHO cells expressing either the OX1 or OX2 receptor. The intrinsic orexin receptor antagonist activity of a compound which may be used in the present invention may be determined by these assays.
as §1, with “buffer. […]” for “buffer.”

Take `CC(C)c1ccnc(O[C@@H]2CC[C@@H](C)N(C(=O)c3ccccc3-n3nccn3)C2)c1CO` [Example 43, [4-(1-methylethyl)-2-{[(3R,6R)-6-methyl-1-{[2-(2H-1,2,3-triazol-2-yl)phenyl]carbonyl}piperidin-3-yl]oxy}pyridin-3-yl]methanol]: the results for the half-maximal inhibitory concentration (IC50) in assay [1] and in assay [2] were 80 nM and 23 nM, respectively.
Consider `C[C@@H]1CC[C@@H](Oc2ncccc2C(C)(C)O)CN1C(=O)c1cc(Cl)ccc1-n1nccn1` [Example 6, 2-(2-{[(3R,6R)-1-{[5-chloro-2-(2H-1,2,3-triazol-2-yl)phenyl]carbonyl}-6-methylpiperidin-3-yl]oxy}pyridin-3-yl)propan-2-ol], for which the IC50 in assay [1] turned out to be 141 nM; in assay [2], 66 nM.
The corresponding values for `Cc1ccnc(O[C@@H]2CC[C@@H](C)N(C(=O)c3ccccc3-n3nccn3)C2)c1CO` [Example 41, (4-methyl-2-{[(3R,6R)-6-methyl-1-{[2-(2H-1,2,3-triazol-2-yl)phenyl]carbonyl}piperidin-3-yl]oxy}pyridin-3-yl)methanol] are 69 nM and 15 nM.
`C[C@@H]1CC[C@@H](Oc2ncccc2C(C)(C)O)CN1C(=O)c1sccc1-n1nccn1` [Example 11, 2-(2-{[(3R,6R)-6-methyl-1-{[3-(2H-1,2,3-triazol-2-yl)thiophen-2-yl]carbonyl}piperidin-3-yl]oxy}pyridin-3-yl)propan-2-ol]: the half-maximal inhibitory concentration (IC50) in assay [1] came out at 148 nM; in assay [2], 41 nM.
Turning to `C[C@@H]1CC[C@@H](Oc2nccc(C(F)(F)F)c2CO)CN1C(=O)c1ccccc1-n1nccn1` [Example 44, [2-{[(3R,6R)-6-methyl-1-{[2-(2H-1,2,3-triazol-2-yl)phenyl]carbonyl}piperidin-3-yl]oxy}-4-(trifluoromethyl)pyridin-3-yl] methanol], the values for the IC50 in assay [1] and in assay [2] were 81 nM and 18 nM, respectively.
The corresponding values for `Cc1ccc(C(=O)N2C[C@H](Oc3ncccc3C(C)(C)O)CC[C@H]2C)c(C2CC2)c1` [Example 16, 2-[2-({(3R,6R)-1-[(2-cyclopropyl-4-methylphenyl)carbonyl]-6-methylpiperidin-3-yl}oxy)pyridin-3-yl]propan-2-ol] are 349 nM and 135 nM.
As to `C[C@@H]1CC[C@@H](Oc2ncccc2C(C)(C)O)CN1C(=O)c1ccccc1N1CCCC1` [Example 12, 2-[2-({(3R,6R)-6-methyl-1-[(2-pyrrolidin-1-ylphenyl)carbonyl]piperidin-3-yl}oxy)pyridin-3-yl]propan-2-ol], the IC50 stood at 265 nM in assay [1] and 104 nM in assay [2].
The like results for `C[C@@H]1CC[C@@H](Oc2ncccc2C(C)(C)O)CN1C(=O)c1ccccc1C1CCC1` [Example 9, 2-[2-({(3R,6R)-1-[(2-cyclobutylphenyl)carbonyl]-6-methylpiperidin-3-yl}oxy)pyridin-3-yl]propan-2-ol] were, in that order, 89 nM and 54 nM.
As for `COc1ccc(C(=O)N2C[C@H](Oc3ncccc3C(C)(C)O)CC[C@H]2C)c(-c2ccccc2)n1` [Example 10, 2-[2-({(3R,6R)-1-[(6-methoxy-2-phenylpyridin-3-yl)carbonyl]-6-methylpiperidin-3-yl}oxy)pyridin-3-yl]propan-2-ol], the IC50 in assay [1] came to 435 nM; in assay [2], 157 nM.
The corresponding values for `C[C@H](O)c1cccnc1O[C@@H]1CC[C@@H](C)N(C(=O)c2ccccc2-n2nccn2)C1` [Example 30, (1S)-1-(2-{[(3R,6R)-6-Methyl-1-{[2-(2H-1,2,3-triazol-2-yl)phenyl]carbonyl}piperidin-3-yl]oxy}pyridin-3-yl)ethanol] are 76 nM and 37 nM.
The like results for `COc1ccnc(O[C@@H]2CC[C@@H](C)N(C(=O)c3ccccc3-n3nccn3)C2)c1C(C)(C)O` [Example 27, 2-(4-Methoxy-2-{[(3R,6R)-6-methyl-1-{[2-(2H-1,2,3-triazol-2-yl)phenyl]carbonyl}piperidin-3-yl]oxy}pyridin-3-yl)propan-2-ol] were, in that order, 395 nM and 25 nM.
The like results for `CC(O)c1c(C(F)(F)F)ccnc1O[C@@H]1CC[C@@H](C)N(C(=O)c2ccccc2-n2nccn2)C1` (stereo partly drawn) [Example 38, 1-[2-{[(3R,6R)-6-Methyl-1-{[2-(2H-1,2,3-triazol-2-yl)phenyl]carbonyl}piperidin-3-yl]oxy}-4-(trifluoromethyl)pyridin-3-yl]ethanol] were, in that order, 188 nM and 110 nM.
`COc1ccnc(O[C@@H]2CC[C@@H](C)N(C(=O)c3ccccc3-n3nccn3)C2)c1C(C)O` (stereo partly drawn) [Example 26, 1-(4-Methoxy-2-{[(3R,6R)-6-methyl-1-{[2-(2H-1,2,3-triazol-2-yl)phenyl]carbonyl}piperidin-3-yl]oxy}pyridin-3-yl)ethanol]: the 50% inhibitory concentration (IC50) was determined as 463 nM in assay [1] and 22.5 nM in assay [2].
